The values below come from patent publication US4459404A, “Amides of retinoic acids with 5-amino tetrazole” (BASF Aktiengesellschaft, priority 1980, dated 1984).

For data set [1], the system named is keratinization of hamster tracheal epithelium (tracheal organ culture, vitamin A deficiency). The experiment in a line: Reversal of keratinization in tracheal organ culture. The class given is cell-based. To be noted: Mesocricetus auratus, 240 h, read-out: ED50 (molar dose effective in suppressing keratinization in one-half of the cultures). The text has this: This keratinization is inhibited, after initiation by chemical compounds, through the use of high energy radiation, or after viral cell transformation, through the use of the novel compounds of the formula (I). The method is described in Cancer Res. 36 (1976), 964-972, Nature 250 (1974), 64-66 and Nature 253 (1975), 47-50.
This assay measures the intrinsic ability of the novel compounds to control epithelial cell differentiation. The significant predictive value of this screening procedure for the potential use of a novel retinoid in the prevention of epithelial tissue tumors is generally accepted. At the same time it is known that any in vitro test system has disadvantages for the prediction of in vivo activity. Apart from these fundamental limitations, the tracheal organ culture assay is one of the most valuable procedures for evaluating the biological activity of a novel retinoid.
The assay procedure determines the ability of the two compounds to reverse keratinization in a defined in vitro system. Tracheas from hamsters in a very early stage of vitamin A deficiency were placed in organ culture. At that time, the animals were 29-30 days old (having been weaned at 21 days) and were still gaining some weight. Their average weight was 47-52 g. Their tracheal epithelium was generally low columnar or cuboidal, with only occasional patches of squamous metaplasia. Each trachea was opened from the larynx to the carina along the membranous dorsal wall and placed in culture in a serum-free medium (CMRL-1066 supplemented with crystalline bovine insulin, 1.0 μg/ml; hydrocortisone hemisuccinate, 0.1 μg/ml; glutamine, 2 mM; penicillin, 100 units/ml; and streptomycin, 100 μg/ml). The cultures were gassed with a mixture of 50% of oxygen, 45% of nitrogen and 5% of carbon dioxide. The culture dishes were rocked through 35.5-36.0 degrees to contact the tracheas with both gas and medium. All tracheas were maintained in medium containing no retinoid for the first 3 days. At the end of the 3 days, some tracheas were harvested. Almost all of these tracheas had significant squamous metaplasia. […]

Data set [2] has as its system male Sprague-Dawley CD rats. Nature of the data set: Comparative oral toxicity in rats (inhibition of growth and lethality over two weeks). The settings on record: for Proportion of survivors, Day 6 / Proportion of survivors, Day 11: 25 μmole/day in corn oil with 4% chloroform; for Average weight, Day 6 / Average weight, Day 11: 25 μmole/day, initial weight 95-110 g; for Average weight, Day 6: Day 6, mean with standard deviation; for Average weight, Day 11: Day 11, mean with standard deviation. The protocol: 2. Comparative toxicity of all-E-N-(tetrazol-5-yl)-retinamide and 13-Z-N-(tetrazol-5-yl)-retinamide.
(a) Male Sprague-Dawley CD rats from Charles River (50-75 g) were randomized and weighed daily for one week before the start of the experiment. At the beginning of the toxicological screen the animals weighed 95-110 g.
(b) The vehicle for the test substances was corn oil containing 4% of chloroform. The dose was 25 μmole of test substance/day, in 0.5 ml of vehicle.

For data set [3], the system named is comedones induced by coal tar (rabbit ear model). Nature of the data set: Comedolytic activity in a rabbit ear model. Format: in vivo, albino rabbit. The settings on record: topical, two weeks, decrease in comedones vs control ear. The protocol: Comedo formation was induced by topical application (0.5 ml), once daily, of 5% coal tar in Polyan® (an ester of lanolin alcohol and linoleic acid, from Amerchol Corp., USA) to both ears of albino rabbits on 5 successive days per week, for two weeks. Following this, the test substance, in a 70:30 volume/volume alcohol:propylene glycol mixture, was applied topically, in an amount of 0.5 ml, to the inner surface of one ear of each rabbit once daily on 5 consecutive days per week, for two weeks. The contra-lateral ear of each rabbit served as an untreated control.
Following a subsequent treatment (~72 hours) with the test substance, the rabbits were sacrificed. A sample of skin, of about 6 cm^2, was removed from the pinna of each ear just external to the auditory canal and was divided into pieces of about 1 cm^2.
These pieces of skin were immersed in water at 60° C. for 2 minutes. The epidermis was carefully peeled off using the flat end of a spatula and fine forceps, and was placed on a microscope slide, with the dermal side facing upward. After overnight airdrying, the slide was examined under the stereomicroscope. Follicular extensions of horny material remain intact. Comedones show up as discrete, uniformly shaped, cylindrical to global horny masses, whose size and number are proportional to the […].
The comedolytic effect was determined by the decrease in the number of comedones in comparison with the control ear.

Data set [4] has as its system dorsal skin (erythema and scaling). The arrangement: species or system New Zealand white rabbit (male). The settings on record: rabbit, in vivo. The protocol: 4. Topical tolerance study of the test substances Six New Zealand white male rabbits were used in each study. Sites, each about 6 cm^2 in size, were shaved on the dorsal trunk of each test animal. The test substances were dissolved in a 70:30 volume/volume alcohol:propylene glycol mixture and 0.2 ml of the solution was applied topically from an automatic micropipette by gentle inunction to a pre-designated site twice daily, with an interval of six hours, for nine successive days. All sites were subjectively evaluated for erythema and scaling at the beginning of the test and before each morning application. A numerical grading scale of 0 to 3 was used (0=no reaction, 1=mild, 2=moderate, 3=severe).

A further data set has as its system the organism. The settings on record: in vivo; cited from earlier work.
The subject of another data set is liver. To be noted: use in therapy; cited from earlier work.
The mark [5] stands for this setting: hamster tracheal organ culture, serum-free medium, 10 days, extrapolated from dose-response curves.

Like-named read-outs stand apart in the source and are kept apart here.

On to `CC1=C(/C=C/C(C)=C/C=C/C(C)=C/C(=O)O)C(C)(C)CCC1` [all-E-retinoic acid, reference compound], for which the IC50 in data set [1] is 0.03 nM. For the same molecule, in data set [2], the “Proportion of survivors, Day 6” value is given as 3/5; the “Proportion of survivors, Day 11” value is on record as 0/5; the “Average weight, Day 6” value is reported as 95 ± 2. For the same molecule, in data set [3] (0.05% concentration), the “% comedolytic activity” value came to 58.3%. In data set [4], the Rating erythema result is on record as “moderate”, the Rating scaling result is on record as “moderate”, the mean erythema is listed as 2.3 and the mean scaling was 1.9. For the same molecule, the toxic effects result with the organism is on record as “even slightly increased doses cause severe damage to the organism, for example with symptoms of hypervitaminosis-A”.

`CC1=C(/C=C/C(C)=C/C=C/C(C)=C\C(=O)Nc2nnn[nH]2)C(C)(C)CCC1` [13-Z-N--(tetrazol-5-yl)-retinamide, 13-Z-N-(tetrazol-5-yl)-retinamide]: the IC50 in data set [1] (setting [5]) was 0.2 nM. Also, in data set [2], the “Proportion of survivors, Day 6” value was 2/5; the “Proportion of survivors, Day 11” value was 2/5; the “Average weight, Day 6” value is recorded as 122 ± 18; the “Average weight, Day 11” value came out at 140 ± 27. Besides, the “% comedolytic activity” value in data set [3] (0.1% concentration) was determined as 39.4%. In data set [4], the Rating erythema entry is reported as “mild”, the Rating scaling result was “none”, the mean erythema was 0.5 and the mean scaling is reported as 0.1.

As for `CC1=C(/C=C/C(C)=C/C=C/C(C)=C\C(=O)O)C(C)(C)CCC1` [13-Z-retinoic acid, reference compound], in data set [4], the Rating erythema result is reported as “severe”, the Rating scaling entry is listed as “severe”, the mean erythema stood at 3.0 and the mean scaling came out at 3.0.

On to `CC1=C(/C=C/C(C)=C/C=C/C(C)=C/C(=O)Nc2nnn[nH]2)C(C)(C)CCC1` [all-E-N--(tetrazol-5-yl)-retinamide, all-E-N-(tetrazol-5-yl)-retinamide], for which, in data set [1] (setting [5]), the IC50 was 0.1 nM. Further, in data set [2], the “Proportion of survivors, Day 6” value is listed as 3/4; the “Proportion of survivors, Day 11” value is listed as 3/4; the “Average weight, Day 6” value is reported as 124 ± 6; the “Average weight, Day 11” value is 155 ± 4. For the same molecule, the “% comedolytic activity” value in data set [3] (0.025% concentration) amounted to 35.1%. Also, in data set [4], the Rating erythema result is given as “mild”, the Rating scaling result is given as “none”, the mean erythema came to 0.8 and the mean scaling is reported as 0.

`CC(=O)OC/C=C(C)/C=C/C=C(C)/C=C/C1=C(C)CCCC1(C)C` [retinyl acetate]: the “liver retinoid concentration and organ damage” value in the data set with liver is “intolerably high retinoid concentration in the liver leads to severe and irreversible damage to the organ”.

`CC1=C(/C=C/C(C)=C/C=C/C(C)=C/CO)C(C)(C)CCC1` [retinol]: the “liver retinoid concentration and organ damage” value in the data set on liver was “intolerably high retinoid concentration in the liver leads to severe and irreversible damage to the organ”.
